Laboratory results: US20090149387A1, “Use of GLP-1 Peptides” (Novo Nordisk A/S, priority 1996, published 2009)
No end group written: not given here.

Legend:
Healthy human volunteers = assay: Effect of iv infused GLP-1(7-36)amide on food intake, satiety, hunger, fullness and appetite in normal human subjects (double-blind crossover); format: in vivo; details: iv infusion 50 pmol/(kg·h) 9.00-15.00, 20 healthy subjects, versus saline
Source text: Healthy human volunteers (20 subjects) were in a double-blind crossover trial given an iv infusion of 50 pmol/(kg·h) of GLP-1(7-36)amide or saline on separate, but otherwise identical experimental days. The infusion was started at 9.00 and lasted until 15.00. At 9.45 the subjects received a fixed amount of breakfast and at 14.15 they had lunch of an identical composition but ad libitum. The subjects rated their feeling of satiety, hunger, fullness and appetite on a visual analogue scale every half hour. The results are given below:
The energy intake of each subjects was measured. The intakes were 3.9 MJ with GLP-1 and 4.3 MJ with Saline resulting in a p-value of 0.009.

rats = details: Tang-Christensen et al. 1996, route not stated; cited from earlier work
Mice [1] = assay: Appetite suppression in mice by subcutaneous synthetic GLP-1(7-36)amide: Complan consumption (Example 4); format: in vivo; details: p<0.001
Procedure: The test method was as described in Example 3 except that the mice were pre-exposed to formula milk (Complan®—a nutritionally complete infant milk substitute) for one day, then fasted one day. On the test day, consumption of Complan® was measured for each mouse during a 10 min period.
Mice were tested for appetite suppression by subcutaneous injection of GLP-1(7-36)amide dissolved in phosphate buffered saline.

Mice [2] = assay: Appetite suppression in mice: sucrose consumption measured immediately after intraperitoneal injection (Example 2); format: in vivo; details: 85 micrograms (equivalent to 3.4 mg/kg) intraperitoneally, tested immediately after injection, 10 minute period, versus vehicle, p-value 0.002
Procedure: Mice were deprived of their normal food for two days and given free access to a 20% sucrose solution on the first day of food deprivation. After the two day food deprivation period, the mice were injected intraperitoneally with 0.5 ml of a solution containing the test substance. Immediately after injection, individual mice were placed in one of eight 15 cm square test boxes with a stainless steel grid floor and a glass drinking tube which projected into the box. […] Consumption of the sucrose solution was measured over a 10 minute period by electronically recording the total amount of contact with the sucrose solution during the test session. The degree of appetite suppression produced by a given test substance was determined by statistical comparison of the mean duration of sucrose consumption by control (vehicle treated) mice with that of mice treated with a test substance. The degree of appetite suppression in a treated group of mice was expressed as percent difference between the test and control group's response duration means. […]

GLP-1: literature GLP-1 of b7; b6: proglucagon fragment 72-108 commonly referred to as GLP-1(1-37) or just GLP-1
Satiety (visual analogue scale rating) (Healthy human volunteers; p = 0.006): GLP-1 > Saline, p = 0.006
Appetite (visual analogue scale rating) (Healthy human volunteers; p = 0.007): GLP-1 < Saline, p = 0.007
Hunger (visual analogue scale rating) (Healthy human volunteers; p = 0.007): GLP-1 < Saline, p = 0.007
Fullness (visual analogue scale rating) (Healthy human volunteers; p = 0.010): GLP-1 > Saline, p = 0.010

GLP-1(1-36)amide (HDEFERHAEGTFTSDVSSYLEGQAAKEFIAWLVKGR-NH2; UniProt P01275 92-127, looked up, fragment) [GLP-1 fragment 1-36, C-terminal amide; literature result]
Effect on food intake (rats): no effect on food intake

GLP-1(7-36)amide
Suppression of feeding (Complan consumption) (Mice [1]; 1 mg/kg subcutaneous, 30 min after injection): 45%
Maximum effect, suppression of feeding (Complan consumption) (Mice [1]; 20 mg/kg subcutaneous (highest dose tested)): 60%
Suppression of sucrose consumption (Mice [2]): 60%
